This passage reports EC50 and activity results from patent publication KR20170082372A, “Sirt6의 활성 조절용 조성물” (한국화학연구원, priority 2016, dated 2017).

This assay concerns the target T1, recombinant Sirt6 enzyme (Homo sapiens, UniProt Q8N6T7).
T1 construct: purchased Cyclex CY-1156
As to the kind of experiment: CycLex Sirt6 deacetylase fluorometric assay (cat. CY-1156). The settings on record: 1 h, room temperature; for EC50: increase of Sirt6 deacetylase activity; for activity at 5 µM (stock): screening at 5uM, no test sample control = 100. In kind it is biochemical.

T1 sequence (Q8N6T7 whole entry): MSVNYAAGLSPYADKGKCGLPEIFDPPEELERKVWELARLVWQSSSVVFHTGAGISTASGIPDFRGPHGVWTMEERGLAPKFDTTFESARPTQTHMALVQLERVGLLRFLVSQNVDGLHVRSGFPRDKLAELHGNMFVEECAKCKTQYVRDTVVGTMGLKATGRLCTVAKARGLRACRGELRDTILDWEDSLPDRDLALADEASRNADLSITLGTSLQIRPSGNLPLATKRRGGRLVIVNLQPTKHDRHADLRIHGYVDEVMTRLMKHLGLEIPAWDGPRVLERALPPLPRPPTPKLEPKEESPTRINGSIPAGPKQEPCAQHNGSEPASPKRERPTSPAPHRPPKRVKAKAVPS

In the case of `NNc1nc2c(-c3cccc(C(F)(F)F)c3)nnn2c2ccccc12` [화학식 1, 5-hydrazinyl-3-(3-(trifluoromethyl)phenyl)-[1,2,3]triazolo[1,5-a]quinazoline], the EC50 was found to be 5 µM and the activity at 5 µM (stock) is no less than 200%.

For the compound `COc1ccc(-c2nnn3c2nc(NC(C)c2ccccc2)c2ccccc23)cc1` (stereo not shown) [화학식 2, 3-(4-methoxyphenyl)-N-(1-phenylethyl)-[1,2,3]triazolo[1,5-a]quinazolin-5-amine], the EC50 came out at 2.8 µM and the activity at 5 µM (stock) was no less than 200%.
